Experimental data as given in patent publication US8362012B2, “Benzoxazine benzimidazole derivative, a pharmaceutical composition comprising the same, and a use thereof” (Daewoong Pharmaceutical Co., Ltd., priority 2008, dated 2013).

biological target: T1, human vanilloid-1 (hVR-1) in hVR-1-HEK293 cell line (Homo sapiens, UniProt Q8NER1); test: Inhibitory effect on calcium influx via a vanilloid receptor (capsaicin-stimulated, Fluo-3/AM); assay type: cell-based; settings: hVR-1-HEK293 cells, 1 μM of capsaicin, compounds 0.015˜2000 nM; read-out: I.A. (inhibitory activity), IC50 on intracellular calcium influx
T1 construct: expressed in transfected cells; host or cells: HEK293 Tet-on strain, doxycycline-induced
T1 sequence (Q8NER1 whole entry): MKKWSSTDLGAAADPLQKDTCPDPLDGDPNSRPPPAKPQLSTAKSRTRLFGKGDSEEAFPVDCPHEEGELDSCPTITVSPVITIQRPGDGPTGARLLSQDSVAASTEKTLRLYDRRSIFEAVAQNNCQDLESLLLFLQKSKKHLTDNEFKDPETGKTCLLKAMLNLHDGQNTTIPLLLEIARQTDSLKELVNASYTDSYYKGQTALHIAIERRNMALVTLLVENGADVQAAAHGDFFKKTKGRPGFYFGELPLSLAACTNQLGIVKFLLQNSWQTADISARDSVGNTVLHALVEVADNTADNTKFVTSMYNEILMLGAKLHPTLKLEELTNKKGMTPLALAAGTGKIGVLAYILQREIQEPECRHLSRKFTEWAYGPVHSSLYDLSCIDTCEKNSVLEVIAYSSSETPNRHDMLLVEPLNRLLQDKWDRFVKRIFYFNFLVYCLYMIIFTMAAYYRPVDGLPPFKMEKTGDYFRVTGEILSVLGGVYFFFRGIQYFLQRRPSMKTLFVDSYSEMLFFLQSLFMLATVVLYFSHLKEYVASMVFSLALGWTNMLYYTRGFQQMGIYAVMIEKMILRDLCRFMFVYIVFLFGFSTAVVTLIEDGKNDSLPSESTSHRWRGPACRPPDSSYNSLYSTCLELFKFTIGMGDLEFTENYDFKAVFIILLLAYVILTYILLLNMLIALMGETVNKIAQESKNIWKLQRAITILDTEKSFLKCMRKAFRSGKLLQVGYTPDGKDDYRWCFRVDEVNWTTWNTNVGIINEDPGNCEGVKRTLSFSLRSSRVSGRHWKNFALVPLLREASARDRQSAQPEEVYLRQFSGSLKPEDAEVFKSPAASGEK
Method: The cell line can modulate the expression of VR-1, depending on whether doxycycline, a derivative of tetracycline, is present or not. […] Specifically, hVR-1-HEK293 cells were cultured in a T75 flask to about 80% confluency, separated from the flask by treating with trypsin solution, and then collected by centrifugation. The cells were suspended in a medium containing 1 μg/mL of doxycycline, and the resulting suspension was diluted to a concentration of 2˜4×10^5 cells/mL […], of the cell suspension was placed in each well of a 96-well black plate. The cells were cultured in 5% CO2 incubator at 37° C. for 2 days, and used for the following procedure. […] The cells prepared in 1) above were cultured at 37° C. for 90 min in a solution containing Fluo-3/AM, a fluorescent dye, as a calcium indicator so that the fluorescent dye was permeated into the cells. […] In order to stimulate calcium influx through a vanilloid receptor, the cells were treated with 1 μM of capsaicin. […] The obtained data were input to the Hill equation represented by the following formula I and the values were analyzed: Intracellular calcium influx= [(fluorescent intensity of experimental group−fluorescent intensity of background)/(fluorescent intensity of positive control−fluorescent intensity of background)]*100 [Formula I] The inhibitory activities were evaluated from the obtained intracellular calcium influx values according to the following criteria.

| SMILES | IC50 [nM] |
| --- | --- |
| C=Cc1ccc(N2c3cccc(-c4nc5ccc(F)cc5[nH]4)c3OC[C@@H]2CO)nc1 [Example 61, [(S)-8-(6-fluoro-1H-benzimidazol-2-yl)-4-(5-vinyl-pyridin-2-yl)-3,4-dihydro-2H-benzo[1,4]oxazin-3-yl]-methanol] | 20 to 100 |
| C=Cc1ccc(N2c3cccc(-c4nc5c(F)cc(F)cc5[nH]4)c3OC[C@@H]2CO)nc1 [Example 63, [(S)-8-(4,6-difluoro-1H-benzimidazol-2-yl)-4-(5-vinyl-pyridin-2-yl)-3,4-dihydro-2H-benzo[1,4]oxazin-3-yl]-methanol] | 20 to 100 |
| CCc1ccc(N2c3cccc(-c4nc5cc(F)c(Cl)cc5[nH]4)c3OC[C@@H]2CO)nc1 [Example 84, [(S)-8-(6-chloro-5-fluoro-1H-benzimidazol-2-yl)-4-(5-ethyl-pyridin-2-yl)-3,4-dihydro-2H-benzo[1,4]oxazin-3-yl]-methanol] | 20 to 100 |
| Cc1ccc(N2CCOc3c(-c4nc5cc(C(C)(C)C)ccc5[nH]4)cccc32)nc1 [Example 10, 8-(5-tert-butyl-1H-benzimidazol-2-yl)-4-(5-methyl-pyridin-2-yl)-3,4-dihydro-2H-benzo[1,4]oxazine] | < 20 |
| C=Cc1ccc(N2c3cccc(-c4nc5ccc(C(F)(F)F)cc5[nH]4)c3OC[C@@H]2CO)nc1 [Example 58, [(S)-8-(6-trifluoromethyl-1H-benzimidazol-2-yl)-4-(5-vinyl-pyridin-2-yl)-3,4-dihydro-2H-benzo[1,4]oxazin-3-yl]-methanol] | 20 to 100 |
| CC(C)(C)c1ccc2[nH]c(-c3cccc4c3OCCN4c3ncc(Cl)cc3Cl)nc2c1 [Example 11, 8-(5-tert-butyl-1H-benzimidazol-2-yl)-4-(3,5-dichloro-pyridin-2-yl)-3,4-dihydro-2H-benzo[1,4]oxazine] | 20 to 100 |
| C=Cc1ccc(N2c3cccc(-c4nc5ccc(C#N)cc5[nH]4)c3OC[C@@H]2CO)nc1 [Example 73, (S)-2-(3-(hydroxymethyl)-4-(5-vinyl-pyridin-2-yl)-3,4-dihydro-2H-benzo[b][1,4]oxazin-8-yl)-1H-benzo[d]imidazol-6-carbonitrile] | 101 to 500 |
| COC[C@H]1COc2c(-c3nc4c(F)cc(F)cc4[nH]3)cccc2N1c1ccc(C)cn1 [Example 107, (S)-8-(4,6-difluoro-1H-benzo[d]imidazol-2-yl)-3-(methoxymethyl)-4-(5-methyl-pyridin-2-yl)-3,4-dihydro-2H-benzo[b][1,4]oxazine] | 501 to 1000 |
| Clc1cccnc1N1CCOc2c(-c3nc4ccc(Br)cc4[nH]3)cccc21 [Example 21, 8-(6-bromo-1H-benzimidazol-2-yl)-4-(3-chloro-pyridin-2-yl)-3,4-dihydro-2H-benzo[1,4]oxazine] | 101 to 500 |
| CCc1ccc(N2c3cccc(-c4nc5cc(F)c(F)cc5[nH]4)c3OC[C@@H]2CO)nc1 [Example 83, [(S)-8-(5,6-difluoro-1H-benzimidazol-2-yl)-4-(5-ethyl-pyridin-2-yl)-3,4-dihydro-2H-benzo[1,4]oxazin-3-yl]-methanol] | 20 to 100 |
| Clc1ccc2nc(-c3cccc4c3OCCN4c3ncccc3Cl)[nH]c2c1 [Example 22, 8-(6-chloro-1H-benzimidazol-2-yl)-4-(3-chloro-pyridin-2-yl)-3,4-dihydro-2H-benzo[1,4]oxazine] | > 1000 |
| C=Cc1ccc(N2c3cccc(-c4nc5ccc(C(C)(C)C)cc5[nH]4)c3OC[C@@H]2CO)nc1 [Example 57, [(S)-8-(6-tert-butyl-1H-benzimidazol-2-yl)-4-(5-vinyl-pyridin-2-yl)-3,4-dihydro-2H-benzo[1,4]oxazin-3-yl]-methanol] | 20 to 100 |
| Cc1ccc(N2CCOc3c(-c4nc5c(Cl)cc(C(F)(F)F)cc5[nH]4)cccc32)nc1 [Example 29, 8-(4-chloro-6-trifluoromethyl-1H-benzimidazol-2-yl)-4-(5-methyl-pyridin-2-yl)-3,4-dihydro-2H-benzo[1,4]oxazine] | 101 to 500 |
| Cc1ccc(N2CCOc3c(-c4nc5c(Br)cc(Br)cc5[nH]4)cccc32)nc1 [Example 32, 8-(4,6-dibromo-1H-benzimidazol-2-yl)-4-(5-methyl-pyridin-2-yl)-3,4-dihydro-2H-benzo[1,4]oxazine] | 101 to 500 |
| C=Cc1ccc(N2c3cccc(-c4nc5c(Cl)cc(C(F)(F)F)cc5[nH]4)c3OC[C@@H]2CO)nc1 [Example 65, [(S)-8-(4-chloro-6-trifluoromethyl-1H-benzimidazol-2-yl)-4-(5-vinyl-pyridin-2-yl)-3,4-dihydro-2H-benzo[1,4]oxazin-3-yl]-methanol] | < 20 |
| Cc1ccc(N2c3cccc(-c4nc5c(F)cc(F)cc5[nH]4)c3OC[C@@H]2CO)nc1 [Example 55, [(S)-8-(4,6-difluoro-1H-benzo[d]imidazol-2-yl)-4-(5-methyl-pyridin-2-yl)-3,4-dihydro-2H-benzo[b][1,4]oxazin-3-yl]-methanol] | < 20 |

Other lines, results leading:

| IC50 [nM] | SMILES |
| --- | --- |
| 101 to 500 | COC[C@H]1COc2c(-c3nc4ccc(OC)cc4[nH]3)cccc2N1c1ccc(C)cn1 [Example 106, (S)-8-(6-methoxy-1H-benzo[d]imidazol-2-yl)-3-(methoxymethyl)-4-(5-methyl-pyridin-2-yl)-3,4-dihydro-2H-benzo[b][1,4]oxazine] |
| 20 to 100 | CCc1ccc(N2c3cccc(-c4nc5ccc(C(C)(C)C)cc5[nH]4)c3OC[C@@H]2CO)nc1 [Example 78, [(S)-8-(6-tert-butyl-1H-benzimidazol-2-yl)-4-(5-ethyl-pyridin-2-yl)-3,4-dihydro-2H-benzo[1,4]oxazin-3-yl]-methanol] |
| 101 to 500 | CC(C)(C)c1ccc2nc(-c3cccc4c3OCCN4c3ccc(C(F)(F)F)cn3)[nH]c2c1 [Example 8, 8-(6-tert-butyl-1H-benzimidazol-2-yl)-4-(5-trifluoromethyl-pyridin-2-yl)-3,4-dihydro-2H-benzo[1,4]oxazine] |
| < 20 | C=Cc1ccc(N2c3cccc(-c4nc5c(F)cc(Br)cc5[nH]4)c3OC[C@@H]2CO)nc1 [Example 62, [(S)-8-(6-bromo-4-fluoro-1H-benzimidazol-2-yl)-4-(5-vinyl-pyridin-2-yl)-3,4-dihydro-2H-benzo[1,4]oxazin-3-yl]-methanol] |
| 101 to 500 | COC[C@H]1COc2c(-c3nc4ccccc4[nH]3)cccc2N1c1ccc(C)cn1 [Example 110, (S)-8-(1H-benzo[d]imidazol-2-yl)-3-(methoxymethyl)-4-(5-methyl-pyridin-2-yl)-3,4-dihydro-2H-benzo[b][1,4]oxazine] |
| 101 to 500 | CC(C)(C)c1ccc2[nH]c(-c3cccc4c3OCCN4c3ccccn3)nc2c1 [Example 12, 8-(5-tert-butyl-1H-benzimidazol-2-yl)-4-pyridin-2-yl-3,4-dihydro-2H-benzo[1,4]oxazine] |
| 101 to 500 | CC(C)(C)c1ccc2nc(-c3cccc4c3OCCN4c3ncc(C(F)(F)F)cc3Cl)[nH]c2c1 [Example 9, 8-(6-tert-butyl-1H-benzimidazol-2-yl)-4-(3-chloro-5-trifluoromethyl-pyridin-2-yl)-3,4-dihydro-2H-benzo[1,4]oxazine] |
| 101 to 500 | C=Cc1ccc(N2c3cccc(-c4nc5c(C(F)(F)F)cc(C(F)(F)F)cc5[nH]4)c3OC[C@@H]2CO)nc1 [Example 71, ((S)-8-(4,6-bis(trifluoromethyl)-1H-benzo[d]imidazol-2-yl)-4-(5-vinyl-pyridin-2-yl)-3,4-dihydro-2H-benzo[b][1,4]oxazin-3-yl)-methanol] |
| 101 to 500 | FC(F)(F)c1ccc2nc(-c3cccc4c3OCCN4c3ncccc3Cl)[nH]c2c1 [Example 16, 4-(3-chloro-pyridin-2-yl)-8-(6-trifluoromethyl-1H-benzimidazol-2-yl)-3,4-dihydro-2H-benzo[1,4]oxazine] |
| 101 to 500 | CC(C)(C)c1ccc2[nH]c(-c3cccc4c3OCCN4c3ccc(CO)cn3)nc2c1 [Example 15, 6-[8-(5-tert-butyl-1H-benzimidazol-2-yl)-2,3-dihydro-benzo[1,4]oxazin-4-yl]-pyridin-3-yl-methanol] |
| 101 to 500 | CC(C)(C)c1ccc2nc(-c3cccc4c3OCCN4c3ncccc3Cl)[nH]c2c1 [Example 6, 8-(6-tert-butyl-1H-benzimidazol-2-yl)-4-(3-chloro-pyridin-2-yl)-3,4-dihydro-2H-benzo[1,4]oxazine] |
| 101 to 500 | C=Cc1ccc(N2c3cccc(-c4nc5ccccc5[nH]4)c3OC[C@@H]2CO)nc1 [Example 75, (S)-(8-(1H-benzo[d]imidazol-2-yl)-4-(5-vinyl-pyridin-2-yl)-3,4-dihydro-2H-benzo[b][1,4]oxazin-3-yl)methanol] |
| < 20 | C=Cc1ccc(N2c3cccc(-c4nc5c(Br)cc(C(F)(F)F)cc5[nH]4)c3OC[C@@H]2CO)nc1 [Example 64, [(S)-8-(4-bromo-6-trifluoromethyl-1H-benzimidazol-2-yl)-4-(5-vinyl-pyridin-2-yl)-3,4-dihydro-2H-benzo[1,4]oxazin-3-yl]-methanol] |
| 101 to 500 | Cc1ccc(N2CCOc3c(-c4nc5ccc(Br)cc5[nH]4)cccc32)nc1 [Example 26, 8-(6-bromo-1H-benzimidazol-2-yl)-4-(5-methyl-pyridin-2-yl)-3,4-dihydro-2H-benzo[1,4]oxazine] |
